{"source": "PubChem BioAssay (NCI)", "experiment_in_all_cases": "NCI-60 cell line screen, 48 h", "key": {"786-0 renal": {"test_system": "786-0 renal"}, "A498 renal": {"test_system": "A498 renal"}, "A549 NSCLC": {"test_system": "A549 NSCLC"}, "ACHN renal": {"test_system": "ACHN renal"}, "BT-549 breast": {"test_system": "BT-549 breast"}, "CAKI-1 renal": {"test_system": "CAKI-1 renal"}, "CCRF-CEM leukemia": {"test_system": "CCRF-CEM leukemia"}, "COLO 205 colon": {"test_system": "COLO 205 colon"}, "DU-145 prostate": {"test_system": "DU-145 prostate"}, "EKVX NSCLC": {"test_system": "EKVX NSCLC"}, "HCC-2998 colon": {"test_system": "HCC-2998 colon"}, "HCT-116 colon": {"test_system": "HCT-116 colon"}, "HCT-15 colon": {"test_system": "HCT-15 colon"}, "HL-60(TB) leukemia": {"test_system": "HL-60(TB) leukemia"}, "HOP-62 NSCLC": {"test_system": "HOP-62 NSCLC"}, "HOP-92 NSCLC": {"test_system": "HOP-92 NSCLC"}, "HS 578T breast": {"test_system": "HS 578T breast"}, "HT29 colon": {"test_system": "HT29 colon"}, "IGROV1 ovarian": {"test_system": "IGROV1 ovarian"}, "K-562 leukemia": {"test_system": "K-562 leukemia"}, "KM12 colon": {"test_system": "KM12 colon"}, "LOX IMVI melanoma": {"test_system": "LOX IMVI melanoma"}, "M14 melanoma": {"test_system": "M14 melanoma"}, "MALME-3M melanoma": {"test_system": "MALME-3M melanoma"}, "MCF7 breast": {"test_system": "MCF7 breast"}, "MDA-MB-231 breast": {"test_system": "MDA-MB-231 breast"}, "MDA-MB-435": {"test_system": "MDA-MB-435"}, "MDA-N": {"test_system": "MDA-N"}, "MOLT-4 leukemia": {"test_system": "MOLT-4 leukemia"}, "NCI-H226 lung": {"test_system": "NCI-H226 lung"}, "NCI-H23 lung": {"test_system": "NCI-H23 lung"}, "NCI-H460 lung": {"test_system": "NCI-H460 lung"}, "NCI-H522 lung": {"test_system": "NCI-H522 lung"}, "NCI/ADR-RES ovarian": {"test_system": "NCI/ADR-RES ovarian"}, "OVCAR-3 ovarian": {"test_system": "OVCAR-3 ovarian"}, "OVCAR-4 ovarian": {"test_system": "OVCAR-4 ovarian"}, "OVCAR-5 ovarian": {"test_system": "OVCAR-5 ovarian"}, "OVCAR-8 ovarian": {"test_system": "OVCAR-8 ovarian"}, "PC-3 prostate": {"test_system": "PC-3 prostate"}, "RPMI-8226 leukemia": {"test_system": "RPMI-8226 leukemia"}, "RXF 393 renal": {"test_system": "RXF 393 renal"}, "SF-268 CNS": {"test_system": "SF-268 CNS"}, "SF-295 CNS": {"test_system": "SF-295 CNS"}, "SF-539 CNS": {"test_system": "SF-539 CNS"}, "SK-MEL-2 melanoma": {"test_system": "SK-MEL-2 melanoma"}, "SK-MEL-5 melanoma": {"test_system": "SK-MEL-5 melanoma"}, "SK-OV-3 ovarian": {"test_system": "SK-OV-3 ovarian"}, "SN12C renal": {"test_system": "SN12C renal"}, "SNB-19 CNS": {"test_system": "SNB-19 CNS"}, "SW-620 colon": {"test_system": "SW-620 colon"}, "T-47D breast": {"test_system": "T-47D breast"}, "TK-10 renal": {"test_system": "TK-10 renal"}, "U251 CNS": {"test_system": "U251 CNS"}, "UACC-257 melanoma": {"test_system": "UACC-257 melanoma"}, "UACC-62 melanoma": {"test_system": "UACC-62 melanoma"}, "UO-31 renal": {"test_system": "UO-31 renal"}}, "note": "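Dose response: 5 concentrations. Exposure: 48 h. Format: 96-well plates. Endpoint: linear interpolation; highest concentration if not reached. At the TGI there is no net growth.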", "data": [{"smiles": "O=C(O)c1ccc(C=C2Sc3ccccc3S2)cc1", "values": [{"measurement": "TGI", "setting": "786-0 renal", "value": "> 100", "unit": "µM"}, {"measurement": "TGI", "setting": "A498 renal", "value": 39.6, "unit": "µM"}, {"measurement": "TGI", "setting": "A549 NSCLC", "value": "> 100", "unit": "µM"}, {"measurement": "TGI", "setting": "ACHN renal", "value": 74.2, "unit": "µM"}, {"measurement": "TGI", "setting": "BT-549 breast", "value": "> 100", "unit": "µM"}, {"measurement": "TGI", "setting": "CAKI-1 renal", "value": "> 100", "unit": "µM"}, {"measurement": "TGI", "setting": "CCRF-CEM leukemia", "value": "> 100", "unit": "µM"}, {"measurement": "TGI", "setting": "COLO 205 colon", "value": "> 100", "unit": "µM"}, {"measurement": "TGI", "setting": "DU-145 prostate", "value": "> 100", "unit": "µM"}, {"measurement": "TGI", "setting": "EKVX NSCLC", "value": "> 100", "unit": "µM"}, {"measurement": "TGI", "setting": "HCC-2998 colon", "value": 42.5, "unit": "µM"}, {"measurement": "TGI", "setting": "HCT-116 colon", "value": "> 100", "unit": "µM"}, {"measurement": "TGI", "setting": "HCT-15 colon", "value": "> 100", "unit": "µM"}, {"measurement": "TGI", "setting": "HL-60(TB) leukemia", "value": "> 100", "unit": "µM"}, {"measurement": "TGI", "setting": "HOP-62 NSCLC", "value": "> 100", "unit": "µM"}, {"measurement": "TGI", "setting": "HOP-92 NSCLC", "value": "> 100", "unit": "µM"}, {"measurement": "TGI", "setting": "HS 578T breast", "value": "> 100", "unit": "µM"}, {"measurement": "TGI", "setting": "HT29 colon", "value": "> 100", "unit": "µM"}, {"measurement": "TGI", "setting": "IGROV1 ovarian", "value": "> 100", "unit": "µM"}, {"measurement": "TGI", "setting": "K-562 leukemia", "value": "> 100", "unit": "µM"}, {"measurement": "TGI", "setting": "KM12 colon", "value": "> 100", "unit": "µM"}, {"measurement": "TGI", "setting": "LOX IMVI melanoma", "value": "> 100", "unit": "µM"}, {"measurement": "TGI", "setting": "M14 melanoma", "value": "> 100", "unit": "µM"}, {"measurement": "TGI", "setting": "MALME-3M melanoma", "value": "> 100", "unit": "µM"}, {"measurement": "TGI", "setting": "MCF7 breast", "value": "> 100", "unit": "µM"}, {"measurement": "TGI", "setting": "MDA-MB-231 breast", "value": "> 100", "unit": "µM"}, {"measurement": "TGI", "setting": "MDA-MB-435", "value": 44.9, "unit": "µM"}, {"measurement": "TGI", "setting": "MDA-N", "value": 81.2, "unit": "µM"}, {"measurement": "TGI", "setting": "MOLT-4 leukemia", "value": "> 100", "unit": "µM"}, {"measurement": "TGI", "setting": "NCI-H226 lung", "value": "> 100", "unit": "µM"}, {"measurement": "TGI", "setting": "NCI-H23 lung", "value": "> 100", "unit": "µM"}, {"measurement": "TGI", "setting": "NCI-H460 lung", "value": "> 100", "unit": "µM"}, {"measurement": "TGI", "setting": "NCI-H522 lung", "value": "> 100", "unit": "µM"}, {"measurement": "TGI", "setting": "NCI/ADR-RES ovarian", "value": "> 100", "unit": "µM"}, {"measurement": "TGI", "setting": "OVCAR-3 ovarian", "value": 83, "unit": "µM"}, {"measurement": "TGI", "setting": "OVCAR-4 ovarian", "value": "> 100", "unit": "µM"}, {"measurement": "TGI", "setting": "OVCAR-5 ovarian", "value": "> 100", "unit": "µM"}, {"measurement": "TGI", "setting": "OVCAR-8 ovarian", "value": "> 100", "unit": "µM"}, {"measurement": "TGI", "setting": "PC-3 prostate", "value": "> 100", "unit": "µM"}, {"measurement": "TGI", "setting": "RPMI-8226 leukemia", "value": "> 100", "unit": "µM"}, {"measurement": "TGI", "setting": "RXF 393 renal", "value": "> 100", "unit": "µM"}, {"measurement": "TGI", "setting": "SF-268 CNS", "value": "> 100", "unit": "µM"}, {"measurement": "TGI", "setting": "SF-295 CNS", "value": "> 100", "unit": "µM"}, {"measurement": "TGI", "setting": "SF-539 CNS", "value": "> 100", "unit": "µM"}, {"measurement": "TGI", "setting": "SK-MEL-2 melanoma", "value": "> 100", "unit": "µM"}, {"measurement": "TGI", "setting": "SK-MEL-5 melanoma", "value": "> 100", "unit": "µM"}, {"measurement": "TGI", "setting": "SK-OV-3 ovarian", "value": "> 100", "unit": "µM"}, {"measurement": "TGI", "setting": "SN12C renal", "value": "> 100", "unit": "µM"}, {"measurement": "TGI", "setting": "SNB-19 CNS", "value": "> 100", "unit": "µM"}, {"measurement": "TGI", "setting": "SW-620 colon", "value": "> 100", "unit": "µM"}, {"measurement": "TGI", "setting": "T-47D breast", "value": "> 100", "unit": "µM"}, {"measurement": "TGI", "setting": "TK-10 renal", "value": "> 100", "unit": "µM"}, {"measurement": "TGI", "setting": "U251 CNS", "value": "> 100", "unit": "µM"}, {"measurement": "TGI", "setting": "UACC-257 melanoma", "value": "> 100", "unit": "µM"}, {"measurement": "TGI", "setting": "UACC-62 melanoma", "value": 95.2, "unit": "µM"}, {"measurement": "TGI", "setting": "UO-31 renal", "value": "> 100", "unit": "µM"}]}]}
